Values quoted from earlier work, collected in patent publication EP0423943A2, “Use of collagenase inhibitors in the treatment of demyelinating diseases, in particular multiple sclerosis” (Beecham Group p.l.c., priority 1989, dated 1991).

Test system: metalloprotease acting at neutral pH identified as a component of myelin membranes
Conditions: myelin membrane metalloprotease, literature statement

| SMILES | inhibition of the enzyme |
| --- | --- |
| c1cnc2c(c1)ccc1cccnc12 [1,10-phenanthroline] | inhibited |
| CC(C)C[C@H](NP(=O)(O)O[C@@H]1O[C@@H](C)[C@H](O)[C@@H](O)[C@H]1O)C(=O)N[C@@H](Cc1c[nH]c2ccccc12)C(=O)O [phosphoramidon] | not |
